Measured values published in ChEMBL document CHEMBL5537198, “Discovery and Characterization of a Bicyclic Peptide (Bicycle) Binder to Thymic Stromal Lymphopoietin” (J Med Chem, 2024).

Assays:
in vivo [1] = settings: Wistar Han, rat, iv
in vitro [2] = settings: rat, plasma
in vivo [3] = settings: Wistar Han, rat, at 0.6 to 2 µmol/kg
in vivo [4] = settings: Wistar Han, rat, lung
in vivo [5] = settings: Wistar Han, rat, iv; remark: listed apart in the source
in vivo [6] = settings: Wistar Han, rat, iv; remark: listed apart in the source
in vitro [7] = settings: Wistar Han, rat, lung S9 fraction
in vivo [8] = settings: Wistar Han, rat, urine, iv; at 0.6 to 2 µmol/kg
in vitro [9] = settings: rat, plasma; remark: listed apart in the source
in vitro [10] = settings: human, lung S9 fraction

Row | Compound | half-life (in vivo [1]) [h] | remaining at 18 h (in vitro [2]) [%] | bioavailability (in vivo [3]) [%] | MRT (in vivo [4]) [h] | Vd (in vivo [5]) [L/kg] | clearance (in vivo [6]) [L/h/kg] | half-life at 1 h, 10 µM (in vitro [7]) [h] | dose excreted (in vivo [8]) [%] | remaining at 2 h (in vitro [9]) [%] | half-life (in vitro [10]) [min]
1 | CC(=O)N[C@H]1CSCCC(=O)N2CN3CN(C2)C(=O)CCSC[C@H](NC(=O)[C@H](CC(=O)O)NC(=O)[C@H](CCC(=O)O)NC(=O)[C@H](CC(C)C)NC(=O)[C@H](Cc2c[nH]c4ccccc24)NC(=O)[C@H](CCC(N)=O)NC1=O)C(=O)N[C@@H](Cc1c[nH]c2ccccc12)C(=O)N[C@@H](CCCNC(=N)N)C(=O)NCC(=O)N[C@@H](Cc1ccc(F)cc1)C(=O)N[C@H](C(=O)N[C@@H](C)C(N)=O)CSCCC3=O | 0.0833 | > 50 | 3.4 | 1.2 | 0.3 | 2.52 | 2.4 | – | – | –
2 | CC(=O)N[C@H]1CSCCC(=O)N2CN3CN(C2)C(=O)CCSC[C@H](NC(=O)[C@H](CC(=O)O)NC(=O)[C@H](CCC(=O)O)NC(=O)[C@H](CC(C)(C)C)NC(=O)C(Cc2cn(C)c4ccccc24)NC(=O)[C@H](CCC(N)=O)NC1=O)C(=O)N[C@@H](Cc1cn(C)c2ccccc12)C(=O)N[C@@H](CCCNC(=N)N(C)C)C(=O)NCC(=O)N[C@@H](Cc1ccc(F)cc1)C(=O)N[C@H](C(N)=O)CSCCC3=O (some centres undefined) | 0.433 | > 50 | 24.7 | 1.3 | 0.42 | 0.72 | – | 1 | – | –
3 | CC(=O)N[C@H]1CSCCC(=O)N2CN3CN(C2)C(=O)CCSC[C@@H](NC(=O)[C@H](CC(N)=O)NC(=O)[C@H](CCC(=O)O)NC(=O)[C@H](CC(C)C)NC(=O)[C@H](Cc2c[nH]c4ccccc24)NC(=O)[C@H](Cc2c[nH]cn2)NC1=O)C(=O)N[C@@H](Cc1c[nH]c2ccccc12)C(=O)N[C@@H](CCCNC(=N)N)C(=O)NCC(=O)N[C@@H](Cc1ccccc1)C(=O)N[C@H](C(N)=O)CSCCC3=O | – | – | – | – | – | – | < 0.0833 | – | 90 | < 5
4 | CC(=O)N[C@H]1CSCCC(=O)N2CN3CN(C2)C(=O)CCSC[C@H](NC(=O)[C@H](CC(=O)O)NC(=O)[C@H](CCC(N)=O)NC(=O)[C@H](CC(C)(C)C)NC(=O)[C@H](Cc2cn(C)c4ccccc24)NC(=O)[C@H](C)N(C)C1=O)C(=O)N[C@@H](Cc1cn(C)c2ccccc12)C(=O)N[C@@H](CCCNC(=N)N(C)C)C(=O)NCC(=O)N[C@@H](Cc1ccc(F)cc1)C(=O)N[C@H](C(N)=O)CSCCC3=O | – | > 50 | – | – | – | – | 2.38 | – | – | –
5 | CC(=O)N[C@H]1CSCCC(=O)N2CN3CN(C2)C(=O)CCSC[C@H](NC(=O)[C@H](CC(N)=O)NC(=O)[C@H](CCC(=O)O)NC(=O)[C@H](CC(C)C)NC(=O)[C@H](Cc2c[nH]c4ccccc24)NC(=O)[C@H](Cc2c[nH]cn2)NC1=O)C(=O)N[C@@H](Cc1c[nH]c2ccccc12)C(=O)N[C@@H](CCCNC(=N)N)C(=O)NCC(=O)N[C@@H](Cc1ccccc1)C(=O)N[C@H](C(N)=O)CSCCC3=O | 1.1 | > 50 | 33.9 | > 24 | 0.6 | 0.378 | – | 64 | – | –
6 | CC(=O)N[C@H]1CSCCC(=O)N2CN3CN(C2)C(=O)CCSC[C@@H]2NC(=O)[C@H](CC(=O)O)NC(=O)[C@H](CCC(=O)O)NC(=O)[C@H](CC(C)C)NC(=O)[C@H](CC/C=C/CC[C@H](NC(=O)[C@H](Cc4c[nH]c5ccccc45)NC2=O)C(=O)NCC(=O)N[C@@H](Cc2ccc(F)cc2)C(=O)N[C@H](C(N)=O)CSCCC3=O)NC(=O)[C@H](CCC(N)=O)NC1=O | 0.05 | > 50 | 5.9 | 0.5 | 0.21 | 2.76 | 0.8 | 0.1 | – | –
7 | CC(=O)N[C@H]1CSCCC(=O)N2CN3CN(C2)C(=O)CCSC[C@H](NC(=O)[C@H](CC(=O)O)NC(=O)[C@H](CCC(N)=O)NC(=O)[C@H](CC(C)(C)C)NC(=O)[C@H](Cc2cccc4ccccc24)NC(=O)[C@H](C)N(C)C1=O)C(=O)N[C@@H](Cc1cn(C)c2ccccc12)C(=O)N[C@@H](CCCNC(=N)N(C)C)C(=O)NCC(=O)N[C@@H](Cc1ccc(F)cc1)C(=O)N[C@H](C(=O)N[C@@H](C)C(N)=O)CSCCC3=O | 0.75 | > 50 | 23 | 2.4 | 0.41 | 0.384 | – | 0.9 | – | –
8 | CC(=O)N[C@H]1CSCCC(=O)N2CN3CN(C2)C(=O)CCSC[C@@H]2NC(=O)[C@H](CC(=O)O)NC(=O)[C@H](CCC(=O)O)NC(=O)[C@H](CC(C)C)NC(=O)[C@H](CCCCCC[C@H](NC(=O)[C@H](Cc4c[nH]c5ccccc45)NC2=O)C(=O)NCC(=O)N[C@@H](Cc2ccc(F)cc2)C(=O)N[C@H](C(N)=O)CSCCC3=O)NC(=O)[C@H](CCC(N)=O)NC1=O | – | > 50 | – | – | – | – | 0.567 | – | – | –
9 | CC(=O)N[C@H]1CSCCC(=O)N2CN3CN(C2)C(=O)CCSC[C@H](NC(=O)[C@H](CC(=O)O)NC(=O)[C@H](CCC(=O)O)NC(=O)[C@H](CC(C)C)NC(=O)[C@H](Cc2cccc4ccccc24)NC(=O)[C@H](CCC(N)=O)NC1=O)C(=O)N[C@@H](Cc1c[nH]c2ccccc12)C(=O)N[C@@H](CCCNC(=N)N(C)C)C(=O)NCC(=O)N[C@@H](Cc1ccc(F)cc1)C(=O)N[C@H](C(=O)N[C@@H](C)C(N)=O)CSCCC3=O | 0.117 | > 50 | 8.6 | 2.2 | 0.23 | 1.38 | – | 0.3 | – | –
10 | CC(=O)N[C@H]1CSCCC(=O)N2CN3CN(C2)C(=O)CCSC[C@H](NC(=O)[C@H](CC(=O)O)NC(=O)[C@H](CCC(=O)O)NC(=O)[C@H](CC(C)C)NC(=O)[C@H](Cc2cccc4ccccc24)NC(=O)[C@H](CCC(N)=O)NC1=O)C(=O)N[C@@H](Cc1c[nH]c2ccccc12)C(=O)N[C@@H](CCCNC(=N)N(C)C)C(=O)NCC(=O)N[C@@H](Cc1ccc(F)cc1)C(=O)N[C@H](C(N)=O)CSCCC3=O | – | > 50 | – | – | – | – | 1.38 | – | – | –
11 | CC(=O)N[C@H]1CSCCC(=O)N2CN3CN(C2)C(=O)CCSC[C@H](NC(=O)[C@@H](CC(=O)O)NC(=O)[C@H](CCC(=O)O)NC(=O)[C@H](CC(C)C)NC(=O)[C@H](Cc2c[nH]c4ccccc24)NC(=O)[C@@H](CCC(N)=O)NC1=O)C(=O)N[C@@H](Cc1c[nH]c2ccccc12)C(=O)N[C@@H](CCCNC(=N)N)C(=O)NCC(=O)N[C@@H](Cc1ccc(F)cc1)C(=O)N[C@H](C(=O)O)CSCCC3=O | 0.0333 | > 50 | 2.3 | 1 | 0.13 | 2.7 | 1.12 | – | – | –
12 | CC(=O)N[C@H]1CSCCC(=O)N2CN3CN(C2)C(=O)CCSC[C@H](NC(=O)[C@H](CC(=O)O)NC(=O)[C@H](CCC(N)=O)NC(=O)[C@H](CC(C)(C)C)NC(=O)[C@H](Cc2cn(C)c4ccccc24)NC(=O)[C@H](CCC(N)=O)NC1=O)C(=O)N[C@@H](Cc1cn(C)c2ccccc12)C(=O)N[C@@H](CCCNC(=N)N(C)C)C(=O)NCC(=O)N[C@@H](Cc1ccc(F)c(Cl)c1)C(=O)N[C@H](C(N)=O)CSCCC3=O | 0.583 | > 50 | 22.5 | 1.8 | 0.32 | 0.384 | 1.53 | 0.8 | – | –
13 | CC(=O)N[C@H]1CSCCC(=O)N2CN3CN(C2)C(=O)CCSC[C@H](NC(=O)[C@H](CC(=O)O)NC(=O)[C@H](CCC(=O)O)NC(=O)[C@H](CC(C)C)NC(=O)[C@H](Cc2c[nH]c4ccccc24)NC(=O)[C@H](CCC(N)=O)NC1=O)C(=O)N[C@@H](Cc1c[nH]c2ccccc12)C(=O)N[C@@H](CCCNC(=N)N)C(=O)NCC(=O)N[C@@H](Cc1ccc(F)cc1)C(=O)N[C@H](C(N)=O)CSCCC3=O | – | > 50 | – | – | – | – | 0.583 | – | – | –
